Converted amounts (≈) assume the structure as drawn. Read-outs that look alike come from different tables or passages of the source.
Assays:
[1] = target: T1, Substance P receptors (guinea pig NK1) (Cavia porcellus, UniProt P30547); assay: Guinea pig isolated ileum (GPI) assay with substance P stimulation in presence of 1 μM naloxone; settings: for GPI/LMMP SP Agonist (IC50; nM): Table 39
T1 construct: from tissue; host or cells: guinea pig (Hartley) ileum LMMP, 1 μM naloxone present
Procedure: Testing stopped at 1 mM concentrations of the test compound.
Analysis of GPI and MVD assays. For opioid data analysis, percentage inhibition was calculated using the average tissue contraction height for 1 min preceding the addition of the agonist divided by the contraction height 3 min after exposure to the dose of agonist. […] IC50 and Emax estimates were determined by computerized nonlinear least-squares analysis (the pharmacological statistics package FlashCalc: Dr. Michael Ossipov, University of Arizona, Tucson, Ariz.). […] A50 values represent the mean of not less than 4 tissues. A50 and Emax estimates were determined by computerized nonlinear least-squares analysis (FlashCalc).

[2] = target: T2, human NK1 receptor (hNK1) (Homo sapiens, UniProt P25103); assay: Radioligand competition binding, [3H]-Substance P, hNK1
T2 construct: expressed in transfected cells
T2 sequence (P25103 whole entry): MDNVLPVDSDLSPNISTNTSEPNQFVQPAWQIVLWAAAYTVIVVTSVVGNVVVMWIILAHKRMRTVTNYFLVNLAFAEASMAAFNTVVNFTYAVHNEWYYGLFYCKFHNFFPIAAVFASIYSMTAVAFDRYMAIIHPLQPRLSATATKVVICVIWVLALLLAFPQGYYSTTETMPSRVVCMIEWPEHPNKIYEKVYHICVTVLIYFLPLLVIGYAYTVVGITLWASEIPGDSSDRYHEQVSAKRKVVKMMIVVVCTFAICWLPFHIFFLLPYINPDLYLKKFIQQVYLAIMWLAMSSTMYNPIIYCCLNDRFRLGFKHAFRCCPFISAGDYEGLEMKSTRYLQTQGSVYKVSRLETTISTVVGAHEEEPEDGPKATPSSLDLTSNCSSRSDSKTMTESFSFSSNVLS

[3] = target: T3, rat μ opioid receptors (rMOR) (Rattus norvegicus, UniProt P33535); assay: biochemical; format: biochemical
T3 construct: expressed in transfected cells; host or cells: HN9.10 neuroblastoma cell line, pCDNA3, neomycin-selected clones
T3 sequence (P33535 whole entry): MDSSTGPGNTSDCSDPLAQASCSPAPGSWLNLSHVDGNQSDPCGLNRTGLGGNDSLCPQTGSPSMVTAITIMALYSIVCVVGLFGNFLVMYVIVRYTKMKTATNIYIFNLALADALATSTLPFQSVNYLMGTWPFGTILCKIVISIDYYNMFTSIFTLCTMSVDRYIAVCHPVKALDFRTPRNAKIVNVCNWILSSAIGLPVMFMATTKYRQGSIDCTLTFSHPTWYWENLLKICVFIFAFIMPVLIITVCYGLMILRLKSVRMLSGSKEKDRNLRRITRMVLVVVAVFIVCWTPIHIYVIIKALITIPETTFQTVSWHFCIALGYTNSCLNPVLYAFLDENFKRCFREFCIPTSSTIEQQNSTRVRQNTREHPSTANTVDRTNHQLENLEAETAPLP

[4] = target: T4, δ opioid receptors (MVD) (Mus musculus, UniProt P32300); assay: Mouse isolated vas deferens (MVD) assay, opioid agonist
T4 construct: from tissue; host or cells: mouse (ICR) isolated vas deferens
T4 sequence (P32300 whole entry): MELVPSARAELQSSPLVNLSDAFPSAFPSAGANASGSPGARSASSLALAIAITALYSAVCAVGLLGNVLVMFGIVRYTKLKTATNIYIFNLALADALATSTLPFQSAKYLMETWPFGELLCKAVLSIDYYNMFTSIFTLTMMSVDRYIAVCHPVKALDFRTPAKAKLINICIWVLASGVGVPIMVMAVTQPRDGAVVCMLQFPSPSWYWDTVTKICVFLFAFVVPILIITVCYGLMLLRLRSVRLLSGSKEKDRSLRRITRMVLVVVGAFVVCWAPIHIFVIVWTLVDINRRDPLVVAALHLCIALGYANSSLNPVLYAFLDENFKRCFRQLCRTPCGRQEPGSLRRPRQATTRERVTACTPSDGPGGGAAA

[5] = Brain distribution, in situ perfusion model; format: in vivo; settings: FIG. 20
[6] = target: T5, rat NK1 (rNK1) receptor (Rattus norvegicus, UniProt P14600); assay: Radioligand competition binding, [3H]substance P, rNK1/CHO membranes; settings: for IC50: membranes from transfected CHO cells
T5 construct: expressed in transfected cells; host or cells: CHO (rNK-1/CHO cell line from Dr. James Krause)
T5 sequence (P14600 whole entry): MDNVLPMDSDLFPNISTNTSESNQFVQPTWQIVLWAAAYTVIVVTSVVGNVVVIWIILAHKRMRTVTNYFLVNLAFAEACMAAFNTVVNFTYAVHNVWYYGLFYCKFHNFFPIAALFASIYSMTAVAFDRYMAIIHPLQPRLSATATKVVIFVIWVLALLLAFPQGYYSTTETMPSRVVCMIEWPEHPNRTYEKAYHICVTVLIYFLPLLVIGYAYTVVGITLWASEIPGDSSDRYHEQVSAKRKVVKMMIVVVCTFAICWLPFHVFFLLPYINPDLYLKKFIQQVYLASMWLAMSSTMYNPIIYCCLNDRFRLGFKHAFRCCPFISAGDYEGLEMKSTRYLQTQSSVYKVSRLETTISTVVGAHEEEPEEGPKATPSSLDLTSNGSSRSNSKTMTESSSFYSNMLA

[7] = target: T6, human δ opioid receptors (hDOR) (Homo sapiens, UniProt P41143); assay: Radioligand competition binding, [3H]DPDPE, hDOR membranes
T6 construct: expressed in transfected cells; host or cells: HN9.10 neuroblastoma cell line, pCDNA3, neomycin-selected clones
T6 sequence (P41143 whole entry): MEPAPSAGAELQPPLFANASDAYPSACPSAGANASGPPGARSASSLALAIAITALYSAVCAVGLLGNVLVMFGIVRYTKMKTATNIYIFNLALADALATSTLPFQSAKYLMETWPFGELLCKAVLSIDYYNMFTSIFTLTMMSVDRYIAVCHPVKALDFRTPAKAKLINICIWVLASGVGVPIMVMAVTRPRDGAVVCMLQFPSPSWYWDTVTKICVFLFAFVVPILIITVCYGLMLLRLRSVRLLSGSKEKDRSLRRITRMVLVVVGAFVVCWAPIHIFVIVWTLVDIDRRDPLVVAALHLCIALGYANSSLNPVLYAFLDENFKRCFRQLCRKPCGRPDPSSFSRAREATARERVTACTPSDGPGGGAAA

[8] = target: T3, rat μ opioid receptors (rMOR); assay: Radioligand competition binding, [3H]DAMGO, rMOR membranes
[9] = system: μ opioid receptors (GPI); assay: Guinea pig isolated ileum (GPI) assay, opioid agonist;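 further: inhibition of electrically evoked contractions (0.1 Hz, 0.4 msec, supramaximal voltage) in organ baths at 37 °C, contraction height 3 min after each cumulative dose versus the 1 min before dosing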
[10] = target: T6, human δ opioid receptors (hDOR); assay: [35S]GTP-γ-S binding assay, hDOR; format: biochemical
[11] = target: rNK1 (Rattus norvegicus, UniProt P14600); settings: previous studies; read-out: Affinity (Ki in nM), rNK1; cited from earlier work
rNK1, sequence (P14600 whole entry): as the sequence (P14600 whole entry) above

[12] = target: MOR (Homo sapiens, UniProt P35372); settings: previous studies; read-out: Affinity (Ki in nM), MOR; cited from earlier work
MOR, sequence (P35372 whole entry): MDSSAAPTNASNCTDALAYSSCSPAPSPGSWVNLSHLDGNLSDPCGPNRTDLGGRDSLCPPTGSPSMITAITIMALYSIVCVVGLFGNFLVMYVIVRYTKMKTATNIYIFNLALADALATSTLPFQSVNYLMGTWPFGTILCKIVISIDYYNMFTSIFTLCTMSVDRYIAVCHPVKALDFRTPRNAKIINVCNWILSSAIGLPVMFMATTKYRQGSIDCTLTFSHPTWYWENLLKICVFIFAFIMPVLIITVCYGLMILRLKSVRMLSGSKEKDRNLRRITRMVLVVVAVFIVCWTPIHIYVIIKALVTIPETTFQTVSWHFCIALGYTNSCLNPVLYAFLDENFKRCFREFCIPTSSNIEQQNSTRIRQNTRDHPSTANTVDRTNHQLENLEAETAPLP

[13] = Solubility in HEPES buffer; format: physicochemical; settings: Table 26; HEPES buffer pH 7.4
Procedure: Solubility. HEPES buffer (0.05 M HEPES buffer in 0.1 M NaCl, pH 7.4, 500 μL) was added to 1 mg of compound. The sample was vortexed for 30 sec, sonicated for 5 min, shaken at r.t. for 2 h, and then allowed to be stayed overnight to equilibration. The sample was filtrated with an Acrodisc Syringe Filter (13 mm, 0.45 μm pore, PTFE membrane, Pall Life Sciences, East Hills, N.Y.).

[14] = Octanol/saline distribution (logD7.4); format: physicochemical
Procedure: HEPES buffer (0.05 M HEPES buffer in 0.1 M NaCl, pH 7.4, 500 μL) was added to 2 mg of compound and mixed with 500 μL of 1-octanol. The sample was shaken at r.t. for 12 h to allow equilibrating. The sample was centrifuged at 6500 rpm in a VanGuard V6500 (GlaxoSmithKline, Research Triangle Park, N.C.) for 15 min. The layers were separated and each layer was centrifuged once again. The compound concentrations of obtained layers were analyzed by HPLC (30-70% of acetonitrile containing 0.1% TFA within 20 min and up to 95% within additional 5 min, 1 mL/min, 230 nm, Vydac 218TP104 C-18 column). The logarithm of 1-octanol/saline distribution (logD7.4) was calculated as the ratio of compound concentration in the 1-octanol and saline phases.
Octanol/saline distribution (logD7.4) (Yamamoto, 2007, J. Med. Chem., submitted). HEPES buffer (0.05 M HEPES buffer in 0.1 M NaCl, pH 7.4, 500 μL) was added to 2 mg of compound and mixed with 500 μL of 1-octanol. The sample was shaken at r.t. for 12 h to allow equilibrating. The sample was centrifuged at 6500 rpm in a VanGuard V6500 (GlaxoSmithKline, Research Triangle Park, N.C.) for 15 min. The layers were separated and each layer was centrifuged once again. The compound concentrations in the obtained layers were analyzed by HPLC (30-70% of acetonitrile containing 0.1% TFA within 20 min and up to 95% within additional 5 min, 1 mL/min, 230 nm, Vydac 218TP104 C-18 column). The logarithm of 1-octanol/saline distribution (logD7.4) was calculated as the ratio of compound concentration in the 1-octanol and saline phases.

[15] = Substance P antagonist, GPI, Ke, in the presence of 1 μM naloxone
[16] = membranes from transfected HN9.10 cells
[17] = Table 39, read-out: GPI/LMMP opioid(mu) agonist (IC50; nM)
[18] = Table 39, read-out: GTP binding hDOR Emax

T1 sequence (P30547 whole entry): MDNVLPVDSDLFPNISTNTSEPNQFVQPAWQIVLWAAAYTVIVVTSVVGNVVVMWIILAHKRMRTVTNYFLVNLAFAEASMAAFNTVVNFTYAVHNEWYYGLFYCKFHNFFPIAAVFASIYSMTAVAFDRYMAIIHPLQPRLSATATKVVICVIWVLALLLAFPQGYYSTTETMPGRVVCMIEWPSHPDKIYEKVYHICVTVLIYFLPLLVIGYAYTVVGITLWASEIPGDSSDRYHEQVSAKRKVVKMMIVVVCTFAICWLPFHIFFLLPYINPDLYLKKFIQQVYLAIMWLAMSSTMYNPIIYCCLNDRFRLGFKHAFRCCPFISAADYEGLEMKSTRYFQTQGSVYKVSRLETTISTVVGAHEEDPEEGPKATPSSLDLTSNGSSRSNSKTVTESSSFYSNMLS

In the case of `CC(C)C[C@H](NC(=O)[C@@H]1CCCN1C(=O)[C@H](CC(C)C)NC(=O)[C@H](Cc1ccccc1)NC(=O)CNC(=O)[C@@H](C)NC(=O)[C@@H](N)Cc1ccc(O)cc1)C(=O)N[C@@H](Cc1c[nH]c2ccccc12)C(=O)OCc1cc(C(F)(F)F)cc(C(F)(F)F)c1` [TY004, H-Tyr-D-Ala-Gly-Phe-Leu-Pro-Leu-Trp-O-3,5-Bzl(CF3)2], the IC50 [1] is reported as 19.4 nM, the Kb [1, 15] is reported as 19.4 ± 5 nM and the “GPI/LMMP SP Agonist (IC50; nM)” value ([1]; concentration not given) is reported as “none”. For the same compound, the activation at 1 µM ([1]; read-out: Substance P GPI agonist (A50), at 1 μM, contraction relative to initial muscle contraction with KCl) was 0%, the Ki [2] was 0.016 nM and the “LogEC50, rMOR, [35S]GTP-γ-S binding” value [3] was −7.48 ± 0.16. The EC50 ([3]; GTP binding rMOR EC50) was 39.8 nM, the EC50 ([3]; read-out: EC50, rMOR, [35S]GTP-γ-S binding) was 33 nM and the Emax ([3]; read-out: Emax, rMOR, [35S]GTP-γ-S binding) was 46%. For the same compound, the Emax ([3]; read-out: GTP binding rMOR Emax) was 44.5%, the Emax ([3]; read-out: GTP binding rMOR Emax (%)) was 44.5% and the IC50 [4] was 101 nM. The “δ selectivity in MVD and GPI assays” value [4] was 3.4 fold, the “IC50(MVD)/IC50(GPI)” value ([4]; Table 4) was 3.4 and the IC50 ([4]; electrically stimulated isolated tissue, read-out: MVD (δ), IC50) was 101 ± 25 nM. The “blood brain barrier penetration” value [5] was “penetrate blood brain barrier”, the IC50 ([6]; IC50, rNK1, Substance P radioligand) was 20.9 nM and the IC50 ([6]; LogIC50, rNK1, Substance P radioligand) was 20 nM. For the same compound, the Ki [7] was 23.3 nM, the “δ selectivity over μ in binding assays” value ([7]; Ki(μ)/Ki(δ)) was 4.7 fold and the Ki ([7]; Table 27, read-out: Affinity hDOR (Ki; nM)) was 5 nM. For the same compound, the Ki ([7]; Table 39, read-out: Affinity hDOR (Ki; nM)) was 5 nM, the “Ki(μ)/Ki(δ)” value ([7]; binding, rMOR vs hDOR) was 4.7 and the “LogIC50, hDOR, [3H]DPDPE” value [7, 16] was −7.97 ± 0.07. The Ki ([7]; read-out: Ki, hDOR, [3H]DPDPE) was 5 nM, the Ki [8] was 23.3 nM and the “LogIC50, rMOR, [3H]DAMGO” value [8, 16] was −7.30 ± 0.07. It also gave an IC50 ([9]; Table 28, read-out: GPI/LMMP Opioid(m) Agonist (IC50; nM)) of 341 nM, an IC50 [9, 17] of 341 nM and an IC50 ([9]; electrically stimulated isolated tissue, read-out: GPI (μ), IC50) of 341 ± 71 nM. The “Ki(μ)/Ki(δ)” value [10] was 3.4, the “LogEC50, hDOR, [35S]GTP-γ-S binding” value [10] was −8.09 ± 0.18 and the “δ selectivity in [35S]GTP-γ-S binding assays” value [10] was 3.4 fold. The EC50 ([10]; Table 27, read-out: GTP binding hDOR EC50) was 9.6 nM, the Emax ([10]; Table 27, read-out: GTP binding hDOR Emax (%)) was 42.5% and the EC50 ([10]; Table 39, read-out: GTP binding hDOR EC50) was 9.6 nM. The Emax [10, 18] was 42.5%, the Emax ([10]; net total bound/basal binding × 100, read-out: Emax, hDOR, [35S]GTP-γ-S binding) was 44% and the EC50 ([10]; read-out: EC50, hDOR, [35S]GTP-γ-S binding) was 9.6 nM.

For “HTyrProPhePheGlyLeuMetNH2 (H-YPFFGLM-NH2) [ESP7]”, the Ki [11] is given as 289 nM and the Ki [12] is given as 218 nM.

With `CC(C)C[C@H](NC(=O)[C@@H]1CCCN1C(=O)C(COC1OC(CO)C(O)C(O)C1O)NC(=O)[C@H](Cc1ccccc1)NC(=O)CNC(=O)[C@@H](C)NC(=O)[C@@H](N)Cc1ccc(O)cc1)C(=O)N[C@@H](Cc1c[nH]c2ccccc12)C(=O)NCc1cc(C(F)(F)F)cc(C(F)(F)F)c1` (stereo partly shown) [TY042] the “GPI/LMMP SP Agonist (IC50; nM)” value ([1]; at 10 nM) was “none”, the solubility [13] was 1.4 µg/mL (≈ 1.05 µM) and the Emax ([3]; Table 24, read-out: GTP binding rMOR Emax (%)) was 28%. The Emax ([3]; Table 39, read-out: GTP binding rMOR Emax) was 28%, the Emax ([10]; read-out: GTP binding hDOR Emax) was 47% and the Emax ([10]; read-out: GTP binding hDOR Emax (%)) was 47%.

In the case of `CCCC[C@H](NC(=O)[C@H](Cc1ccccc1)NC(=O)CNC(=O)[C@@H](C)NC(=O)[C@@H](N)Cc1ccc(O)cc1)C(=O)N1CCC[C@H]1C(=O)N[C@@H](CC(C)C)C(=O)N[C@@H](Cc1c[nH]c2ccccc12)C(=O)NCc1cc(C(F)(F)F)cc(C(F)(F)F)c1` [TY045], the Kb ([1]; GPI/LMMP SP Antagonist (Ke; nM), Table 24) is reported as 40.8 nM, the solubility [13] is reported as less than 1 µg/mL and the IC50 [4] is reported as 13.6 nM. The IC50 ([9]; Table 24, read-out: GPI/LMMP Opioid (μ) Agonist (IC50; nM)) was 463 nM, the IC50 [9, 17] was 463 nM and the Emax ([10]; Table 24, read-out: GTP binding hDOR Emax (%)) was 125%. For the same compound, the Emax [10, 18] was 125% and the logD7.4 ([14]; Table 26, pH 7.4) was greater than 3.0.

With `CC(C)C[C@H](NC(=O)[C@@H]1CCCN1C(=O)[C@H](Cc1ccccc1)NC(=O)CNC(=O)[C@@H](C)NC(=O)[C@@H](N)Cc1ccc(O)cc1)C(=O)N[C@@H](Cc1c[nH]c2ccccc12)C(=O)NCc1ccccc1` [TY008, H-Tyr-DAla-Gly-Phe-Pro-Leu-Trp-NH-Bzl] the “species difference between the guinea pig and the rat (NK1)” value ([1]; GPI Ke vs rNK1 affinity) was “more than 40 fold”, the Kb [1, 15] was 26 ± 3.9 nM and the IC50 [2] was 31.6 nM. It also gave a Ki ([2]; Table 39, read-out: Affinity hNK1 (Ki; nM)) of 14 nM, a Ki ([2]; read-out: Ki (nM), hNK1, [3H]Substance P, Table 6, CHO cell membranes) of 14 nM and a Ki ([2]; read-out: Ki, hNK1) of 14 nM. For the same compound, the inhibition at 1 µM ([6]; read-out: Inhibition % at 1 μM, rNK1, [3H]Substance P) was 30 ± 9.9%, the inhibition at 1 µM ([6]; read-out: inhibition at rNK1 receptor) was 30% and the logD7.4 ([14]; 0.05 N HEPES buffer in 0.1 N NaCl) was 3.3.
